Tests used:
Type in all cases: functional
[1] = test system: Culex pipiens pallens; test: Insecticidal activity against Culex pipiens pallens (mosquito) fourth-instar larvae assessed as insect mortality at 0.5 mg/kg measured 2 days post compound treatment; conditions: 48 h
[2] = test system: Culex pipiens pallens; test: Insecticidal activity against Culex pipiens pallens (mosquito) fourth-instar larvae assessed as insect mortality at 0.25 mg/kg measured 2 days post compound treatment; conditions: 48 h
[3] = test system: Tetranychus cinnabarinus; test: Insecticidal activity against Tetranychus cinnabarinus (carmine spider mite) infested on Sieva bean plants leaves exposed to compound formulation at 50 mg/kg assessed as insect mortality measured 2 days post compound treatment; conditions: 48 h
[4] = test system: Mythimna separata; test: Insecticidal activity against Mythimna separata (Oriental armyworm) fourth-instar larvae infested compound pre-treated corn leaves assessed as insect mortality at 20 mg/kg measured 2 days post compound treatment
[5] = test system: Culex pipiens pallens; test: Insecticidal activity against Culex pipiens pallens (mosquito) fourth-instar larvae assessed as insect mortality at 0.1 mg/kg measured 2 days post compound treatment; conditions: 48 h
[6] = test system: Tetranychus cinnabarinus; test: Insecticidal activity against Tetranychus cinnabarinus (carmine spider mite) infested on Sieva bean plants leaves exposed to compound formulation at 100 mg/kg assessed as insect mortality measured 2 days post compound treatment; conditions: 48 h
[7] = test system: Tetranychus cinnabarinus; test: Insecticidal activity against Tetranychus cinnabarinus (carmine spider mite) infested on Sieva bean plants leaves exposed to compound formulation at 200 mg/kg assessed as insect mortality measured 2 days post compound treatment; conditions: 48 h
[8] = test system: Mythimna separata; test: Insecticidal activity against Mythimna separata (Oriental armyworm) fourth-instar larvae infested compound pre-treated corn leaves assessed as insect mortality at 10 mg/kg measured 2 days post compound treatment

| Structure (SMILES) | mortality at 0.5 mg/kg [1] | mortality at 0.25 mg/kg [2] | mortality at 50 mg/kg [3] | mortality at 20 mg/kg [4] | mortality at 0.1 mg/kg [5] | mortality at 100 mg/kg [6] | mortality at 200 mg/kg [7] | mortality at 10 mg/kg [8] |
| --- | --- | --- | --- | --- | --- | --- | --- | --- |
| N#Cc1c(Br)c(C(F)(F)F)n(COC(=O)C(=O)OCCF)c1-c1ccc(Cl)cc1 | 100% | 100% | 83% | 100% | 100% | 92% | 100% | 10% |
| CCC(C)NC(=O)C(=O)OCn1c(-c2ccc(Cl)cc2)c(C#N)c(Br)c1C(F)(F)F (configuration not stated) |  |  |  | 100% |  |  |  | 30% |
| CCOC(=O)C(=O)OCn1c(-c2ccc(Cl)cc2)c(C#N)c(Br)c1C(F)(F)F |  |  |  | 100% |  |  |  | 80% |
| CCCNC(=O)C(=O)OCn1c(-c2ccc(Cl)cc2)c(C#N)c(Br)c1C(F)(F)F | 100% | 100% |  | 100% | 80% |  |  | 25% |
| CCCCOC(=O)C(=O)OCn1c(-c2ccc(Cl)cc2)c(C#N)c(Br)c1C(F)(F)F |  |  |  | 100% |  |  |  | 100% |
| C/C=C/NC(=O)C(=O)OCn1c(-c2ccc(Cl)cc2)c(C#N)c(Br)c1C(F)(F)F |  |  | 89% | 100% |  | 93% | 96% | 15% |
| CC(C)(C)NC(=O)C(=O)OCn1c(-c2ccc(Cl)cc2)c(C#N)c(Br)c1C(F)(F)F | 100% | 30% |  | 100% | 10% |  |  | 20% |
| CC(C)NC(=O)C(=O)OCn1c(-c2ccc(Cl)cc2)c(C#N)c(Br)c1C(F)(F)F | 100% | 80% | 87% | 100% | 30% | 95% | 100% | 20% |
| CC(C)(C)OC(=O)C(=O)OCn1c(-c2ccc(Cl)cc2)c(C#N)c(Br)c1C(F)(F)F |  |  |  | 100% |  |  |  | 10% |
| N#Cc1c(Br)c(C(F)(F)F)n(COC(=O)C(=O)Nc2ccccc2Cl)c1-c1ccc(Cl)cc1 |  |  |  | 100% |  | 51% | 71% | 30% |
| COCCOC(=O)C(=O)OCn1c(-c2ccc(Cl)cc2)c(C#N)c(Br)c1C(F)(F)F | 100% | 90% | 94% | 100% | 20% | 95% | 100% | 20% |
| N#Cc1c(Br)c(C(F)(F)F)n(COC(=O)C(=O)OCC2CCCC2)c1-c1ccc(Cl)cc1 | 100% | 100% | 84% | 100% | 20% | 90% | 100% | 30% |
| Cc1ccc(NC(=O)C(=O)OCn2c(-c3ccc(Cl)cc3)c(C#N)c(Br)c2C(F)(F)F)cc1 | 100% | 100% | 79% | 100% | 40% | 90% | 96% | 10% |
| Cc1ccccc1NC(=O)C(=O)OCn1c(-c2ccc(Cl)cc2)c(C#N)c(Br)c1C(F)(F)F | 100% | 100% |  | 100% | 100% |  |  | 10% |
| C/C=C/OC(=O)C(=O)OCn1c(-c2ccc(Cl)cc2)c(C#N)c(Br)c1C(F)(F)F | 100% | 100% |  | 100% | 80% |  |  | 30% |
| CCOCCOC(=O)C(=O)OCn1c(-c2ccc(Cl)cc2)c(C#N)c(Br)c1C(F)(F)F | 100% | 100% |  | 100% | 80% |  |  | 20% |
| N#Cc1c(Br)c(C(F)(F)F)n(COC(=O)C(=O)Nc2ccc(Cl)cc2)c1-c1ccc(Cl)cc1 | 100% | 10% | 84% | 100% | 0% | 92% | 100% | 20% |
| CC(C)OC(=O)C(=O)OCn1c(-c2ccc(Cl)cc2)c(C#N)c(Br)c1C(F)(F)F | 100% | 100% |  | 100% | 20% |  | 100% | 70% |
| CCCCNC(=O)C(=O)OCn1c(-c2ccc(Cl)cc2)c(C#N)c(Br)c1C(F)(F)F | 100% | 90% |  | 100% | 20% | 0% | 48% | 0% |
| N#Cc1c(Br)c(C(F)(F)F)n(COC(=O)C(=O)NC2CCCCC2)c1-c1ccc(Cl)cc1 | 100% | 90% |  | 100% | 20% | 46% | 76% | 20% |
| N#Cc1c(Br)c(C(F)(F)F)n(COC(=O)C(=O)OC2CCCCC2)c1-c1ccc(Cl)cc1 | 100% | 90% |  | 100% | 20% |  |  | 20% |
| COC(=O)C(=O)OCn1c(-c2ccc(Cl)cc2)c(C#N)c(Br)c1C(F)(F)F |  |  |  | 100% |  |  |  | 15% |

— ChEMBL document CHEMBL3046536, “Synthesis, crystal structure, and insecticidal activity of novel N-alkyloxyoxalyl derivatives of 2-arylpyrrole” (2008)
